Data reported in US7550469B2, “Heterocyclic amide derivatives and their use as dopamine D3 receptor ligands” (Aventis Pharmaceuticals Inc., priority 2001, dated 2009).
pKi: −log10 of the molar value. Where two headings read alike, the source gives them in different places.

Target: T1, cloned human alpha-1A adrenergic receptors (α1a) (Homo sapiens, UniProt P35348)
T1 construct: expressed in transfected cells; host or cells: CHO cells, G418-resistant clone, pcDNA3 vector; membrane fragments
T1 sequence (P35348 1-466): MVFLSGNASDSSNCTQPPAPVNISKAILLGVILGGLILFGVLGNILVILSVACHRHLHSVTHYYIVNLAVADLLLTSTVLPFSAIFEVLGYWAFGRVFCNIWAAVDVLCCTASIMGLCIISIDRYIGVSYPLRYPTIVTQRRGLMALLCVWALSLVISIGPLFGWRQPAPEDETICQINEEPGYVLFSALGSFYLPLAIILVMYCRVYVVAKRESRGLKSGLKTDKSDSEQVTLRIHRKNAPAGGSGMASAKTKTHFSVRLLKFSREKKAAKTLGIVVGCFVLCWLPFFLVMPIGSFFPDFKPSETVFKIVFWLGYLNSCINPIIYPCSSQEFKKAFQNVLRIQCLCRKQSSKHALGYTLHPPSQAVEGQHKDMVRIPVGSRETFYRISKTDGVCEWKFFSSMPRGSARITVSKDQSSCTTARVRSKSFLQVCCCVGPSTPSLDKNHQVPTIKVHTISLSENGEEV
Assay: [3H]Prazosin binding to cloned human alpha-1A adrenergic receptors expressed in CHO cells
Conditions: for Ki: human α-1, 6-fluoro vs 6-trifluoromethyl benzo[b]thiophene pairs, read-out: halpha 1 Ki (nM) h = human; for pKi: h = human, piperazines (n = 1) vs homopiperazines (n = 2), read-out: h-α1 Ki
Description: ^3H]PRAZOSIN BINDING TO CLONED HUMAN ALPHA-1A ADRENERGIC RECEPTORS (α1a) EXPRESSED IN CHINESE HAMSTER OVARY CELLS (CHO)
Purpose: This in vitro assay is designed as a screen to identify compounds displaying a affinity for the human α1a adrenoceptor subtype expressed in the membrane fragments of CHO cells. The assay measures the ability of the test compounds to displace [^3H] prazosin from α1a sites. • The identification of multiple vascular α1-addrenoceptors (α1a, α1b, α1d) in vitro has provided impetus to define the role(s) of these subtypes in cardiovascular regulation in vivo (Vargas and Gorman, 1995). […] Prazosin is a potent antagonist of the human α1a-adrenoceptor subtype, which has been cloned and is expressed in the membrane fragments of CHO cells. hα1a Receptor: The cloning of the human α1a cDNA was accomplished first by screening a human prostate cDNA library (Clontech), from which a portion of the coding region was obtained. This DNA fragment was then used to screen a human leukocyte genomic library (Clontech), and the rest of the coding sequence was obtained. Later these two fragments were spliced together. The entire coding sequence was then fully sequenced including matching PCR sequence with original genomic coding sequence, thus ensuring splice sites were joined correctly (Schwinn et al., 1995). Once sequenced, the gene was subcloned into the expression vector pcDNA3 (Invitrogen). Plasmid DNA was then used for transfection into CHO cells and G418 resistant clones were isolated. A clone expressing high levels of the hα1a receptor (as determined by mRNA and receptor binding data) was chosen and pharmacologically characterized. Culture Media: Media Ingredients for Adherent α1a expressing CHO Culture: • A. HAM's F-12 (Cellgro) • B. 10% 0.2 micron filtered Fetal Bovine Serum (FBS)(Cellgro) • C. 1% 0.2 micron filtered Penicillin-Streptomycin (Celigro) • D. G418 0.2 micron filtered (Geneticin 400 μg/ml)(Cellgro) • Cells are cultured using established methods and procedures in either 150×25 mm culture plates (scale up to 100 plates) or a combination of these plates and 70 roller bottles. One culturing/harvest cycle typically requires 2 weeks and yields between 100-400 mg protein. Plates or bottles are incubated at 37° C.+5% CO2. Storage: Cells are harvested by mechanical scraping, washed using PBS, collected in 250 ml Corning polypropylene centrifuge tubes, spun down (1500RPM) and resuspended in dH2O 10% DMSO (final volume per harvest is approximately 50 ml). Protein determination is made using the Biorad DC Assay Kit. Finally, the appropriate volume is aliquoted into a 2 ml Corning Cryovial (10 mg/1-1.5 ml) which is stored at −80° C. Current Lot Data:
Assay Requirement: 0.5 cryovials per 96 well plate (assay volume=200 μl/well) [^3H]-Ligand: [7-methoxy-^3H]-Prazosin: 1.0 nM (NEN, NET-823) • 70-87 Ci/mmol Materials: Phentolamine mesylate (Research Biochemicals Int. #P-131) • 96 well flat bottom plates (Beckman) • Unifilter GF/B Plate (Packard) • Polyethylenimine (Sigma #P-3134) • TomTec or Packard Filtermate 196 Cell Harvesters • Packard TopCount Scintillation Counter Buffers: A: 50 mM Tris HCl; 0.1% ascorbate, pH 7.7 (incubation buffer) • B: 50 mM Tris HCl; pH 7.7 (wash buffer) Procedure: Assay additions are as follows (in the order indicated): • Total Binding=50 μl buffer A+50 μl [^3H]prazosin+100 μl membrane • Nonsp. Bd.=50 μl 10 μM phentolamine+50 μl [^3H]prazosin+100 μl membrane • Test Cpd.=50 μl compound+50 μl [^3H]prazosin+100 μl membrane • Compounds to be evaluated are weighed out to yield a 10 mM stock solution in DMSO in a 24 well polystyrene plate. This is diluted to a 0.5 mM stock in dH2O. Serial dilutions in Buffer A are made from which 50 μl additions to the plate are made in duplicate in order to achieve the final concentrations desired. Typically, one 96 well plate is used to evaluate 11 compounds at 4 concentrations (10^−6-10^−9 M) in duplicate. […]

| SMILES | Ki | pKi | other results |
| --- | --- | --- | --- |
| O=C(NCCCCN1CCN(c2csc3cc(C(F)(F)F)ccc23)CC1)c1ccc(Br)cc1 [compound 815551] | 80 nM | – | – |
| O=C(NCCCCN1CCN(c2csc3cc(C(F)(F)F)ccc23)CC1)c1ccc(-c2ccccc2)cc1 [815547A] | – | – | halpha 1 % I h = human (Inh @ 10 uM): 18.7% @ 10 uM |
| O=C(NCCCCN1CCCN(c2csc3cc(F)ccc23)CC1)c1ccc2ccccc2c1 [822223G] | – | 6.91 | – |
| O=C(NCCCCN1CCN(c2csc3cc(C(F)(F)F)ccc23)CC1)c1c(F)cccc1F [compound 815557] | 72 nM | – | – |
| CC(C)(C)c1ccc(C(=O)NCCCCN2CCCN(c3csc4cc(F)ccc34)CC2)cc1 [compound 822198] | – | 6.68 | – |
| COc1ccccc1C(=O)NCCCCN1CCN(c2csc3cc(C(F)(F)F)ccc23)CC1 [compound 815554] | – | – | halpha 1 % I h = human (Inh @ 1 uM): 40% Inh @ 1 uM |
| O=C(NCCCCN1CCN(c2csc3cc(C(F)(F)F)ccc23)CC1)c1ccc(Cl)cc1 [compound 815548] | – | – | halpha 1 % I h = human (Inh @ 1 uM): 27% Inh @ 1 uM |
| O=C(NCCCCN1CCCN(c2csc3cc(F)ccc23)CC1)c1cc2ccccc2s1 [822224G] | – | 7.08 | – |
| O=C(NCCCCN1CCN(c2csc3cc(C(F)(F)F)ccc23)CC1)c1cc2ccccc2s1 [814238A] | 78.3 nM | – | – |
| O=C(NCCCCN1CCCN(c2csc3cc(F)ccc23)CC1)c1ccc(OC(F)(F)F)cc1 [compound 822152] | – | 6.91 | – |
| O=C(NCCCCN1CCCN(c2csc3cc(F)ccc23)CC1)c1cccc(F)c1 [compound 822154] | – | 7.38 | – |
| CCOc1ccc(C(=O)NCCCCN2CCN(c3csc4cc(C(F)(F)F)ccc34)CC2)cc1 [compound 815541] | 1110 nM | – | halpha 1 % I h = human (Inh @ 10 uM): 48% Inh @ 10 uM |
| COc1ccccc1C(=O)NCCCCN1CCCN(c2csc3cc(F)ccc23)CC1 [compound 822157] | – | 7.56 | – |
| O=C(NCCCCN1CCN(c2csc3cc(C(F)(F)F)ccc23)CC1)c1ccc(C(F)(F)F)cc1 [compound 815555] | – | – | halpha 1 % I h = human (Inh @ 1 uM): 24% Inh @ 1 uM |
| O=C(NCCCCN1CCN(c2csc3cc(C(F)(F)F)ccc23)CC1)c1ccc2c(c1)OCO2 [compound 815544] | 62 nM | – | – |
| O=C(NCCCCN1CCN(c2csc3cc(C(F)(F)F)ccc23)CC1)c1ccc(F)cc1F [compound 815542] | 68 nM | – | – |
| O=C(NCCCCN1CCN(c2csc3cc(C(F)(F)F)ccc23)CC1)c1sc2ccccc2c1Cl [compound 815546] | 59 nM | – | – |
| CCCCOc1ccc(C(=O)NCCCCN2CCN(c3csc4cc(C(F)(F)F)ccc34)CC2)cc1 [compound 815545] | – | – | halpha 1 % I h = human (Inh @ 10 uM): 25% Inh @ 10 uM |
| O=C(NCCCCN1CCN(c2csc3cc(C(F)(F)F)ccc23)CC1)c1ccco1 [compound 815556] | 12 nM | – | – |
| O=C(NCCCCN1CCCN(c2csc3cc(F)ccc23)CC1)c1ccco1 [S981843] | – | 8.25 | – |
